Reference: ChEMBL document CHEMBL1148897, “New natural products from the sponge-derived fungus Aspergillus niger” (J Nat Prod, 2004)
Active and inactive are the calls of the source. No cut-off for these calls is given here.

What was measured:
Candida albicans [1] = experiment: Antimicrobial activity against Candida albicans at 50 ug/disk after 24 hrs by agar plate diffusion assay; assay type: functional, organism-based
Escherichia coli [2] = experiment: Antimicrobial activity against Escherichia coli at 50 ug/disk after 24 hrs by agar plate diffusion assay; assay type: functional, organism-based
Candida albicans [3] = experiment: Antimicrobial activity against Candida albicans at 100 ug/disk after 24 hrs by agar plate diffusion assay; assay type: functional, organism-based
Bacillus subtilis [4] = experiment: Antimicrobial activity against Bacillus subtilis at 50 ug/disk after 24 hrs by agar plate diffusion assay; assay type: functional, organism-based
Artemia salina [5] = experiment: Toxicity in Artemia salina at 100 ppm; assay type: organism-based; settings: in vivo
Staphylococcus aureus [6] = experiment: Antimicrobial activity against Staphylococcus aureus at 50 ug/disk after 24 hrs by agar plate diffusion assay; assay type: functional, organism-based
Staphylococcus aureus [7] = experiment: Antimicrobial activity against Staphylococcus aureus at 100 ug/disk after 24 hrs by agar plate diffusion assay; assay type: functional, organism-based
Bacillus subtilis [8] = experiment: Antimicrobial activity against Bacillus subtilis at 1000 ug/disk after 24 hrs by agar plate diffusion assay; assay type: functional, organism-based
Artemia salina [9] = experiment: Toxicity in Artemia salina at 10 ppm; assay type: organism-based; settings: in vivo
Escherichia coli [10] = experiment: Antimicrobial activity against Escherichia coli at 100 ug/disk after 24 hrs by agar plate diffusion assay; assay type: functional, organism-based
Cortical neurone [11] = experiment: Neuroprotective activity in Wistar rat cortical neuron assessed as reduction of quisqualic acid-induced intracellular calcium level at 5 ug/mL relative to control; assay type: functional; parameters: scale not given: the % may be the effect or the level left
Cortical neurone [12] = experiment: Neuroprotective activity in Wistar rat cortical neuron assessed as reduction of L-glutamic acid-induced intracellular calcium level at 5 ug/mL relative to control; assay type: functional; parameters: scale not given: the % may be the effect or the level left
Cortical neurone [13] = experiment: Neuroprotective activity in Wistar rat cortical neuron assessed as reduction of L-glutamic acid-induced intracellular calcium level at 1 ug/mL relative to control; assay type: functional; parameters: scale not given: the % may be the effect or the level left
Cortical neurone [14] = experiment: Neuroprotective activity in Wistar rat cortical neuron assessed as reduction of quisqualic acid-induced intracellular calcium level at 1 ug/mL relative to control; assay type: functional; parameters: scale not given: the % may be the effect or the level left
Spodoptera littoralis [15] = experiment: Insecticidal activity against Spodoptera littoralis larvae assessed as reduction of weight at 100 ppm in artificial diet after 7 days relative to control; assay type: functional; parameters: scale not given: the % may be the effect or the level left
Spodoptera littoralis [16] = experiment: Insecticidal activity against Spodoptera littoralis larvae assessed as survival rate at 100 ppm in artificial diet after 7 days relative to control; assay type: functional

| Compound | Activity (Candida albicans [1]) | Activity (Escherichia coli [2]) | Activity (Candida albicans [3]) | Activity (Bacillus subtilis [4]) | Activity (Artemia salina [5]) | Activity (Staphylococcus aureus [6]) | Activity (Staphylococcus aureus [7]) | Activity (Bacillus subtilis [8]) | Activity (Artemia salina [9]) | Activity (Escherichia coli [10]) | Activity (Cortical neurone [11]) | Activity (Cortical neurone [12]) | Activity (Cortical neurone [13]) | Activity (Cortical neurone [14]) | Activity (Spodoptera littoralis [15]) | Activity (Spodoptera littoralis [16]) |
| --- | --- | --- | --- | --- | --- | --- | --- | --- | --- | --- | --- | --- | --- | --- | --- | --- |
| COc1cc(C)c2c(OC)c(-c3c(O)c4c(C)cc(O)cc4oc3=O)c(=O)oc2c1 | inactive | inactive | inactive | inactive | Non-toxic | inactive | inactive | inactive | Non-toxic | inactive |  |  |  |  |  |  |
| NC(=O)c1c[nH]c(=O)cc1Cc1ccccc1 [ASPERNIGRIN A] | inactive | inactive | inactive | inactive | Non-toxic | inactive | inactive | inactive | Non-toxic | inactive |  |  |  |  |  |  |
| COc1cc([C@H](Cc2ccccc2)n2cc(C(N)=O)c(Cc3ccccc3)cc2=O)oc(=O)c1 [ASPERNIGRIN B] | inactive | inactive | inactive | inactive | Non-toxic | inactive | inactive | inactive | Non-toxic | inactive | 23.5% | 55% | 25.5% | 33.6% |  |  |
| C/C=C/c1oc2c(c(=O)c1O)N[C@H](O)C2=O [PYRANONIGRIN A] | inactive | inactive | inactive | inactive | Non-toxic | inactive | inactive | inactive | Non-toxic | inactive |  |  |  |  | 29% | 85% |
| C/C=C/c1oc2c(OC)c(O)n(O)c2c(=O)c1O [PYRANONIGRIN B] | inactive | inactive | inactive | inactive | Non-toxic | inactive | inactive | inactive | Non-toxic | inactive |  |  |  |  |  |  |
| C/C=C/c1oc2c(O)c(OC)n(O)c2c(=O)c1O [PYRANONIGRIN C] | inactive | inactive | inactive | inactive | Non-toxic | inactive | inactive | inactive | Non-toxic | inactive |  |  |  |  |  |  |
